Test results: patent publication US6589766B1, “Aldol consensations by catalytic antibodies” (The Scripps Research Institute, priority 1997, dated 2003)

What was measured:
[1] = control aldol reactions using lysine or bovine serum albumin instead of the antibodies; assay type: biochemical; conditions: used instead of the antibodies
Protocol: For ease of comparison we determined specific rates for these reactions under the following defined conditions: 1 M of donor, 500 mM of aldehyde 4 and 0.4 mol-% of antibody .

[2] = cited from earlier work; for pKa of the amino group: free in aqueous solution / water
[3] = amine catalyzed retro-aldolization of 59 in aqueous buffer and n-octanol; assay type: biochemical
Description: Therefore the second order rate constants for n-butylamine and aminoacetonitrile catalyzed retro-aldolization of 59 where determined in aqueous buffer and n-octanol. […] The pka's of n-butylamine and aminoacetonitrile in water are 10.61 and 5.34 (Hupe, D. J.; Kendall, M. C. R.; Spencer, T. A. J. Am. Chem. Soc. 1972, 94, 1254). […] Antibody 38C2 provides a 106-108 fold enhancement of the efficiency of the retro-aldol reaction of 59 as compared to the non-enzymic amine catalyzed reactions in either aqueous or organic media. […] The effectiveness of the active site amine of 38C2 is also indicated by effective molarities between 560 and 35,000 M depending on the amine and solvent system studied.
The activation energy for this reaction should be […] in nonpolar solvents such as the active site of the antibody and n-octanol since the reaction involves charge dispersal in the transition state. A polar medium would be expected to stabilize the cationic iminium intermediates to a greater extent than the activated complex. (Reichardt, C., in Solvents and Solvents Effects in Organic Chemistry Ebel, H. F., Wentrup-Byne, E., Eds.; New York, N.Y., 1990, 2nd eddition, pp1-511; Heathcock, C. H. Stereoselective Aldol Condensations, in E. Buncel and T. Durst (eds): Comprehensive Carbanion Chemistry. Part B, P. 177ff. (particularly p. 198), Elsevier, Amsterdam 1984).

[4] = system: aldolase antibodies 38C2 and 33F12; experiment: inhibition of antibody aldolase activity by β-diketones; assay type: biochemical
Protocol: For ease of comparison we determined specific rates for these reactions under the following defined conditions: 1 M of donor, 500 mM of aldehyde 4 and 0.4 mol-% of antibody . […] A large variety of other ketones were also studied with aldehyde 4 with monitoring of the consumption of 4 and appearance of a new peak tentatively assigned as the β-hydroxyketone product. The antibody catalyzed aldol reactions were inhibited by addition of equimolar amounts of the hapten 1 or 2,4-pentanedione. Further control experiments were carried out using lysine or bovine serum albumin instead of the antibodies. […] Further study of mixed solvent systems may allow conditions to be defined where substrates such as these are accepted by the catalyst. Of the ketones studied, reactions involving hydroxyacetone as the donor were the most efficient.
No background reaction for the overall conversion of cyclopentanone to 35 in the absence of antibody could be observed following extended incubation for 2 months.
The reaction of 3-methyl-2,4-pentanedione was monitored spectrophotometrically by following the absorption of the antibody-enamine complex 3 now at 335 nm. […] Study of the dependence of the rate of enamine formation on pH with 2,4-pentanedione yielded the same pKa.

| Compound | catalysis of the aldol reactions [1] | pKa of the amino group [2] | pKa of the protons at the 3 position [2] | also measured |
| --- | --- | --- | --- | --- |
| NCCCC[C@H](N)C(=O)O [lysine] | No catalysis | around 10.5 |  |  |
| bovine serum albumin: control protein used instead of the antibodies | No catalysis |  |  |  |
| CCCCN [n-butylamine] |  | 10.61 |  | catalysis in n-octanol compared to catalysis in aqueous solution [3]: 63 fold |
| CC(=O)CC(C)=O [2,4-pentanedione] |  |  | 8.87 | inhibition of ab 38C2 catalyzed elimination ([4]; elimination from 36 to 35): inhibited; inhibition of antibody catalyzed aldol reactions ([4]; equimolar amounts): inhibited |
| CC(=O)C(C)C(C)=O [3-methyl-2,4-pentanedione] |  |  | 10.65 | inhibition of aldolase activity ([4]; stoichiometric reaction forming stable vinylogous amides): completely inhibiting aldolase activity |
| N#CCN [aminoacetonitrile] |  | 5.34 |  |  |
